# Measured values as given in patent publication US11591634B1, “Forecasting bacterial survival-success and adaptive evolution through multiomics stress-response mapping and machine learning” (priority 2019, dated 2023).
# Tests used:
# Type in all cases: cell-based, Streptococcus pneumoniae
# [1] = system: S. pneumoniae strain TIGR4 (T4); test: Determination of relative minimal inhibitory concentration (MIC); conditions: Streptococcus pneumoniae, lowest concentration that abolishes bacterial growth, 16 hours, 37° C., read-out: 1x MIC for T4
# Description: (§1) Each concentration was tested in triplicate. Growth was monitored on a Tecan Infinite 200 PRO plate reader at 37° C. for 16 hours. MIC is determined as the lowest concentration that abolishes bacterial growth (FIGS. 6A-6H).
# [2] = system: S. pneumoniae strain Taiwan-19F (19F); test: as above; conditions: Streptococcus pneumoniae, 16 h, read-out: 1x MIC for 19F
# Description: as §1
# S. pneumoniae 19F = test: Fitness outcome under antibiotic exposure (growth curve assay)
# Description: (§2) To test whether a gene-panel model can be trained that predicts fitness for many different conditions, a large RNA-Seq dataset was generated for the human pathogen Streptococcus pneumoniae. […] These include cell wall synthesis inhibitors (CWSI), DNA synthesis inhibitors (DSI), protein synthesis inhibitors (PSI) and RNA synthesis inhibitors ((RSI); FIG. 1A, Tables 1 & 2). Each strain was exposed to each antibiotic for 2 to 4 hours and cells were harvested for RNA-Seq at various time points. As T4 and 19F are susceptible to most antibiotics used, the transcriptional profiles in the presence of antibiotics mostly represent cases of low fitness (FIG. 1A, sensitive strain, 1xMICWT). In order to find patterns that differentiate fitness outcomes, adapted strains were generated with increased fitness in the presence of antibiotics by serial passaging wildtype T4 and 19F in the presence of increasing amounts of antibiotics. Four independent adapted populations for each strain were selected on individual antibiotics. These adapted strains could grow in the presence of antibiotic at 1.5xMIC of the wildtype strain, albeit with a small growth defect (FIGS. 6A-6E & 6F). In parallel, RNA-Seq was performed on S. pneumoniae strains D39 and T4 in a chemically defined medium, and media from which either uracil, Glycine or L-Valine was removed, which are essential for D39 but not T4. This enabled the potential identification of a common stress signature that is shared between antibiotic exposure and nutrient deprivation, and across multiple strains. Lastly, D39 was adapted to grow in the absence of each individual nutrient, after which RNA-Seq was repeated for adapted clones (Table 1 lists all 24 strains, 67 populations and 267 RNA-Seq experiments).
# (§3) S. pneumoniae strain TIGR4 (T4; NC_003028.3) is a serotype 4 strain originally isolated from a patient^3,4, Taiwan-19F (19F; NC_012469.1) is a multi-drug resistant strain^5,6 and D39 (NC_008533) is a commonly used serotype 2 strain originally isolated from a patient about 90 years ago^7. Strain PG1 and PG19 were isolated from adults with pneumococcal bacteremia infection and included in the Pneumococcal Bacteremia Collection Nijmegen (PBCN)^8. All S. pneumoniae gene numbers refer to the T4 genome. Correspondence between homologous genes among S. pneumoniae strains and gene function annotations are described herewith. Escherichia coli strain AR538, Klebsiella pneumoniae strain AR497 and Salmonella enterica subsp Typhimurium strain AR635 were clinical isolates obtained from the Center of Disease Control (CDC). Staphylococcus aureus strain MN6 was kindly provided by George Sakoulas (Center of Immunity, Infection & Inflammation, UCSD School of Medicine). Unless otherwise specified, S. pneumoniae strains were cultivated in Todd Hewitt medium with 5% yeast extract (THY) with 5 μL/mL oxyrase (Oxyrase, Inc) or on sheep's blood agar plates (Northeastern Laboratories) at 37° C. with 5% CO2. A. baumannii, E. coll. K. pneumoniae, S. aureus and S. Typhimurium were cultured in Mueller Hinton broth II (Sigma) at 37° C. with 220 rpm constant shaking. Tn-Seq and RNA-Seq experiments of S. pneumoniae under nutrient-depletion and antibiotic conditions were performed in chemically defined medium (CDM)^9 and semi-defined minimal medium (SDMM)^10, respectively. RNA-Seq experiments for A. baumannii, S. Typhimurium, E. coll. K. pneumoniae, and S. aureus were performed in Mueller Hinton broth II. Single strain growth assays were performed at least three times using 96-well plates by taking OD600 measurements on a Tecan Infinite 200 PRO plate reader.
# S. pneumoniae T4 = test: as above
# Description: as §2, §3
structure (smiles),measurement,setting,value
"O=C(O)c1cn(C2CC2)c2cc(N3CCNCC3)c(F)cc2c1=O [Ciprofloxacin, ciprofloxacin]",MIC,[1],1 µg/mL
same,MIC,[2],1 µg/mL
same,Fitness,"S. pneumoniae 19F; S. pneumoniae 19F wild-type, growth curves",Low
same,Survive (real survival outcome),"S. pneumoniae 19F; strain 19F, Adapted FALSE, Concentration L (low)",FALSE
same,Fitness,"S. pneumoniae T4; S. pneumoniae T4 wild-type, 1xMIC antibiotic, growth curves",Low
same,Survive (real survival outcome),"S. pneumoniae T4; strain T4, Adapted FALSE, Concentration L (low)",FALSE
